Data: patent publication US20240156832A1, “METHODS OF METABOLIZING METOPIMAZINE AND ITS SALTS” (Neurogastrx, Inc., priority 2020, published 2024)

Legend:
[1] = biological target: human D2 receptor (Homo sapiens, UniProt P14416); conditions: relative to MPZ; cited from earlier work
[2] = test system: rhFMO1, rhFMO3, and rhFMO5; assay: Incubation with recombinant FMO; type: in vitro ADME, human; conditions: 1 μM MPZ, pH 8.4
Protocol: Protein concentrations for all rFMO isoforms were 0.05 mg/mL. A positive control (benzydamine, 100 μM) was incubated for 20 minutes. […] All other procedures were the same as described previously. The negative control reactions were incubated absence of NADPH.

[3] = Incubation with HKM for FMO; type: in vitro ADME, human; conditions: HKM pH 8.4, NADPH, with/without methimazole, heat inactivation
Protocol: MPZ, at 1.0 and 10.0 μM, was incubated with HLM or HKM to determine the contribution of microsomal FMOs on the metabolism of MPZ. A reaction mixture containing KPi buffer (pH 8.4), HLM or HKM (0.5 mg/mL protein) and MPZ (1.0 and 10.0 μM) was pre-incubated for 3-5 minutes at 37° C. The reaction was initiated by the addition of NADPH into the reaction mixture. Reaction was conducted for 0 and 60 min. A positive control (benzydamine, 100 μM) was incubated in duplicate for 0 and 20 minutes. Parallel incubation was conducted by adding 1 mM methimazole, a non-specific FMO inhibitor, under identical conditions. Heat inactivated microsomes (50° C. for at least 5 minutes) was incubated under identical conditions negative control. All other procedures were the same as described previously.

[4] = Incubation of MPZ in human intestine S9; type: in vitro ADME; conditions: human intestine S9 1 mg/mL, 2.5 μM MPZ, 60 min
Protocol: Initial experiment was conducted with S9 fractions from liver and intestine to assess the role of liver and intestinal enzymes in the metabolism of MPZ. The reaction mixture contained 2.5 μM MPZ, pooled human liver or intestine S9 fraction (1 mg/mL S9 protein), 100 mM KPi buffer (pH 7.4). The reaction mixture was pre-incubated for 3-5 min at 37° C. in a humidified incubator filled with 5% CO2 followed by the addition of NADPH (1 mM) to initiate the reaction. The reaction was incubated for 0 and 60 min. The total percentage of organic solvent in incubation mixture was <0.1%. The reactions were terminated by the addition of sample mixture of acetonitrile and ethanol (90:10, v/v). The positive control substrate, 7-EC, was incubated in triplicate in an identical manner as MPZ for S9 fractions.

[5] = both, human, in vivo, po, 60 mg
Protocol: The clinical study was conducted at Biotrial Rennes (Rennes, France), in accordance with the Declaration of Helsinki. The study (NG100-101) was a double-blind, placebo-controlled, ascending single- and multiple-dose study of the safety, tolerability, and pharmacokinetics of metopimazine administered orally to healthy adult subjects. The study protocol, informed consent form, and appropriate related documents were approved by the institutional review board, and all subjects provided written informed consent prior to participation in the study.
In this study, sequential ascending single doses were administered to 4 cohorts of 8 participants (6 actives and 2 placebos per cohort, in cohorts 1, 2 and 3 following a randomization 6:2 and in cohort 4 with a 1:1 randomization for the two sentinel participants. In the morning, after at least 10 hours of fasting overnight, eight healthy adult subjects (male or female aged 18 to 45), were orally administered metopimazine (or a matching placebo). Cohort 1-4 received a matching placebo or ascending doses of Vogalene (metopimazine) capsules at the doses of 15 mg, 30 mg, 45 mg, or 60 mg, respectively. […] Plasma concentrations of metopimazine, metopimazine acid and metopimazine sulfoxide were quantified using LC-MS/MS methods. […]

[6] = test system: other CYP enzymes; assay: Incubation with the other recombinant CYP isoforms; type: in vitro ADME, human; conditions: 1 μM MPZ, 60 min
Excerpt: All other procedures were the same as described previously.

human D2 receptor, sequence (P14416 whole entry): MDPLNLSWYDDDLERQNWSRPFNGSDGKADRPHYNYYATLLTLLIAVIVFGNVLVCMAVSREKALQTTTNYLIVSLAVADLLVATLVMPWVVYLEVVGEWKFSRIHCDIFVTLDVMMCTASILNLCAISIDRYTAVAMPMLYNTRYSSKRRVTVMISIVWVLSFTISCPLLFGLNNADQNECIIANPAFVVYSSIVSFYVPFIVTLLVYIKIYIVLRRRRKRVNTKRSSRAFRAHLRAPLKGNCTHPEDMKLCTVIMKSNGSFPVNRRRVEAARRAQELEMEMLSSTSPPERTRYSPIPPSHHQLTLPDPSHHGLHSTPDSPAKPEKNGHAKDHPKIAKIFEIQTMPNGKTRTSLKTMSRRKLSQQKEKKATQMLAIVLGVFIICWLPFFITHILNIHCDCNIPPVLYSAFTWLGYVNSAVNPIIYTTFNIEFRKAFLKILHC

SMILES | less potent at the human D2 receptor compared to the parent [1] | metabolism of MPZ by recombinant FMO enzymes [2] | metabolite production in HKM [3] | metabolite production in HKM ([3]; listed as metopimazine) | metabolism of MPZ [4] | Tmax [5] | contribution of other CYP enzymes to MPZ metabolism [6]
CS(=O)(=O)c1ccc2c(c1)N(CCCN1CCC(C(=O)O)CC1)c1ccccc1S2 [MPZA, metopimazine acid] | about 200 fold | – | – | – | – | – | –
CS(=O)(=O)c1ccc2c(c1)N(CCCN1CCC(C(N)=O)CC1)c1ccccc1S2 [MPZ, metopimazine] | – | did not metabolize MPZ | did not produce any metabolites | No metabolites were produced under any condition | virtually no metabolism | 3 h | None of the other CYP enzymes appeared to have significant contribution
